Reference: ChEMBL document CHEMBL1135807, “2,5'-Disubstituted adenosine derivatives: evaluation of selectivity and efficacy for the adenosine A(1), A(2A), and A(3) receptor” (J Med Chem, 2002)
pEC50, pKi: −log10 of the molar value.

Tests used:
Adenosine receptor A1 = biological target: T1, Adenosine receptor A1 (Rattus norvegicus, UniProt P25099); assay: Ability to displace [3H]DPCPX from Adenosine A1 receptor in rat cortical membrane; type: cell membranes
T1 sequence (P25099 whole entry): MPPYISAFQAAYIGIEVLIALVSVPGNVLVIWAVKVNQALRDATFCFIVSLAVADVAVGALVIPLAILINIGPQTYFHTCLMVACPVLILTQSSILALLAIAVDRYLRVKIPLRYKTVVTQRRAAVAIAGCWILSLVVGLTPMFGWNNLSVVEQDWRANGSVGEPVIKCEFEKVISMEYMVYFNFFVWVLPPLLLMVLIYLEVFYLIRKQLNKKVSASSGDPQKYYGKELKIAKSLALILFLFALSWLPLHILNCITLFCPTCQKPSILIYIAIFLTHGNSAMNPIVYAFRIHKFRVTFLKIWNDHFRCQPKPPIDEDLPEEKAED

Adenosine receptor A2a [1] = biological target: Adenosine receptor A2a (Rattus norvegicus, UniProt P30543)
Description: Binding affinity at Adenosine A2A receptor in rat striatal membrane by [3H]ZM-241385 displacement.

[2] = biological target: T2, Adenosine receptor A1 (Rattus norvegicus) (UniProt P25099); assay: Ability to displace [3H]DPCPX from Adenosine A1 receptor in rat cortical membrane at 10e-5 M; type: cell membranes
T2 sequence (whole entry): T1 sequence (P25099 whole entry)

Adenosine receptor A2a [3] = biological target: Adenosine receptor A2a (Homo sapiens, UniProt P29274); assay: G-protein activation in human Adenosine A2A receptor expressed in CHO cells using cAMP assay; type: functional, cell-based
[4] = biological target: T3, Adenosine receptor A3 (Homo sapiens) (UniProt P0DMS8); assay: Percent inhibition of forskolin induced (10 uM) cAMP production compared to C1-IB-MECA through Adenosine A3 receptor expressed in CHO cells at 100 uM; type: functional, cell-based
T3 sequence (whole entry): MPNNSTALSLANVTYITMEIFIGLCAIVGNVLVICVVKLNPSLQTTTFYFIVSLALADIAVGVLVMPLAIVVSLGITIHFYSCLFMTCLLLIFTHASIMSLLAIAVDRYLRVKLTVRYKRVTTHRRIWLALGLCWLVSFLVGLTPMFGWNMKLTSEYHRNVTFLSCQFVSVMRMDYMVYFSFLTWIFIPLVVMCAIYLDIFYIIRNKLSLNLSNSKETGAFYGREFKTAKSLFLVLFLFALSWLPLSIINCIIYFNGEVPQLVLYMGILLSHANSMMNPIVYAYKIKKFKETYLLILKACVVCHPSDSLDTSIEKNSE

Adenosine receptor A3 = biological target: T4, Adenosine receptor A3 (Homo sapiens, UniProt P0DMS8); assay: biochemical
T4 sequence (P0DMS8 whole entry): T3 sequence (whole entry)
Description: Binding affinity at human Adenosine A3 receptor expressed in HEK 293 cells by [125I]-AB MECA displacement.

[5] = biological target: T3, Adenosine receptor A3 (Homo sapiens); assay: % inhibition of forskolin induced (10 uM) cAMP production compared to C1-IB-MECA through Adenosine A3 receptor expressed in CHO cells at 30 uM; type: functional, cell-based
[6] = biological target: T2, Adenosine receptor A1 (Rattus norvegicus); assay: Displacement of [3H]DPCPX from Adenosine A1 receptor in rat cortical membrane at 10e-5 M; type: cell membranes

Chain of Adenosine receptor A2a (Rattus norvegicus, UniProt P30543) (P30543 whole entry): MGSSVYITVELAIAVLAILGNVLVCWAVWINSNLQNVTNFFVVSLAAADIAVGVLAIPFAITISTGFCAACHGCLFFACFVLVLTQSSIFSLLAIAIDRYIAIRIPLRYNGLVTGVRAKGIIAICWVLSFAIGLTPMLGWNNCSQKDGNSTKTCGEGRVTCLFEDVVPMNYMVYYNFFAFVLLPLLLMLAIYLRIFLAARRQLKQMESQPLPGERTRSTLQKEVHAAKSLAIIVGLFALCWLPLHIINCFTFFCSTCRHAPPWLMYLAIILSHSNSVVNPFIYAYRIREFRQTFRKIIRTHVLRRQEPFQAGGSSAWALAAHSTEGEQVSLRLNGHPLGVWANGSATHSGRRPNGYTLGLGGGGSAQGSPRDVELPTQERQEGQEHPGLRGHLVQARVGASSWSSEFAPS
Chain of Adenosine receptor A2a (Homo sapiens, UniProt P29274) (P29274 whole entry): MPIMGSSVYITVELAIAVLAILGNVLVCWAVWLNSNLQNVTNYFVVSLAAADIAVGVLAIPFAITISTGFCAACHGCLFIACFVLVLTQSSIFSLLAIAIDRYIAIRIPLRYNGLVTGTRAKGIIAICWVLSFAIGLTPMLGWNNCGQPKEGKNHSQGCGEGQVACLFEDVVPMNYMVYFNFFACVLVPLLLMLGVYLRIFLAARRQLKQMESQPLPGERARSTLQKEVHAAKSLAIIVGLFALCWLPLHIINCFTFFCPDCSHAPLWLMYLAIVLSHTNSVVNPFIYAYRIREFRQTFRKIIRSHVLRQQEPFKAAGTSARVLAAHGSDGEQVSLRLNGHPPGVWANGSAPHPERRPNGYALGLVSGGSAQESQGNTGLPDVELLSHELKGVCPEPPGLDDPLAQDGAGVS

Row | Compound | pKi (Adenosine receptor A1) | pKi (Adenosine receptor A2a [1]) | Displacement [2] [%] | pEC50 (Adenosine receptor A2a [3]) | Emax [4] [%] | pKi (Adenosine receptor A3) | Emax [5] [%] | Displacement [6] [%]
1 | CCCSC[C@H]1O[C@@H](n2cnc3c(N)nc(I)nc32)[C@H](O)[C@@H]1O | 5.98 | 6.36 | – | – | – | – | – | –
2 | CCCSC[C@H]1O[C@@H](n2cnc3c(N)nc(N/N=C/CC(C)C)nc32)[C@H](O)[C@@H]1O | – | 5.82 | 22 | 4.89 | 16 | 6.16 | – | –
3 | CSC[C@H]1O[C@@H](n2cnc3c(N)nc(I)nc32)[C@H](O)[C@@H]1O | – | 5.41 | – | – | – | – | – | –
4 | CCCCC#Cc1nc(N)c2ncn([C@@H]3O[C@H](CSCC)[C@@H](O)[C@H]3O)c2n1 | 5.66 | 6.96 | – | 6.30 | – | – | – | –
5 | CSC[C@H]1O[C@@H](n2cnc3c(N)nc(N/N=C/CC(C)C)nc32)[C@H](O)[C@@H]1O | – | 6.66 | 18.9 | 5.30 | – | 6.60 | 41 | –
6 | Nc1nc(I)nc2c1ncn2[C@@H]1O[C@H](CO)[C@@H](O)[C@H]1O | – | – | 36.1 | – | – | – | – | –
7 | CC(C)C/C=N/Nc1nc(N)c2ncn([C@@H]3O[C@H](CO)[C@@H](O)[C@H]3O)c2n1 | – | 7.70 | 18.9 | 5.96 | – | 7.42 | – | –
8 | CC(C)C/C=N/Nc1nc(N)c2ncn([C@@H]3O[C@H](CSC(C)C)[C@@H](O)[C@H]3O)c2n1 | – | 5.74 | – | 4.98 | – | 6.39 | 26 | 13
9 | CCSC[C@H]1O[C@@H](n2cnc3c(N)nc(N/N=C/CC(C)C)nc32)[C@H](O)[C@@H]1O | – | 6.30 | 21.2 | 5.12 | 7 | 6.09 | – | –
10 | CCCCC#Cc1nc(N)c2ncn([C@@H]3O[C@H](CSCCC)[C@@H](O)[C@H]3O)c2n1 | – | 6.77 | – | 6.10 | – | – | – | 46.5
11 | CCCCC#Cc1nc(N)c2ncn([C@@H]3O[C@H](CSC(C)C)[C@@H](O)[C@H]3O)c2n1 | 5.90 | 6.66 | – | 5.44 | – | – | – | –
12 | CCSC[C@H]1O[C@@H](n2cnc3c(N)nc(I)nc32)[C@H](O)[C@@H]1O | 6.41 | 5.92 | – | – | – | – | – | –
13 | CCCCC#Cc1nc(N)c2ncn([C@@H]3O[C@H](CSC)[C@@H](O)[C@H]3O)c2n1 | – | 7.22 | – | 6.15 | – | – | – | –
14 | CC(C)SC[C@H]1O[C@@H](n2cnc3c(N)nc(I)nc32)[C@H](O)[C@@H]1O | – | 6.09 | 56.2 | – | – | – | – | –
